According to US11262349B2, “Multiplexed immune cell assays on a micropillar/microwell chip platform” (Cleveland State University, priority 2017, dated 2022):

Legend:
[1] = tested on: CD40 on RAW 264.7 cells; assay: Surface biomarker expression (CD40) in immune cells on micropillar/microwell chip; format: cell-based, mouse; details: 3D alginate/Matrigel, glycopolymers at 1250 μg/mL, LPS at 10 μg/mL, 48 hours, vs growth medium control (FIG. 15A)
Procedure: (§1) FIGS. 8, 14, and 15 are discussed in Example 5.
(§2) The micropillars of a 384-pillar micropillar chip were coated with 0.01% PMA-OD. Then 16.6 mM BaCl2/0.0033% PLL were printed onto the micropillars using a […].
(§3) An immune-cell suspension was prepared using 0.75% alginate and 0.5 mg/mL Matrigel and then printed onto the coated micropillars.
(§4) Growth media was then printed into the microwells on a microwell chip using a […].
(§5) The micropillar chip was then sandwiched with the microwell chip for 30 minutes and incubated for 24 hours with fresh growth media.
(§6) Next, various glycopolymers at 1250 μg/mL (polyacrylamide, N-glucosyl polymer, N-mannosyl polymer, N-lactosyl polymer, N-α2,3-sialolactosyl polymer, and N-α2,6-sialolactosyl polymer) and LPS at 10 μg/mL [701] were printed into the microwells.
(§7) The micropillar chip was then sandwiched with the microwell plate containing glycopolymers and LPS [701] for 48 hours. The micropillar chip was then rinsed with TBS [801] for 10 minutes, then incubated with ice-cold methanol and acetone (1:1 ratio) for 10 minutes at room temperature. The micropillar chip was then rinsed with TBS twice for 5 minutes and incubated with blocking buffer (SuperBlock) for 1 hour at room temperature. […]

[2] = tested on: Class II MHC on RAW 264.7 cells; assay: Surface biomarker expression (class II MHC) in immune cells on micropillar/microwell chip; format: cell-based, mouse; details: 3D alginate/Matrigel, glycopolymers at 1250 μg/mL, LPS at 10 μg/mL, 48 hours, vs growth medium control (FIG. 15D)
Procedure: as §1, §2, §3, §4, §5, §6, §7

[3] = tested on: IL-6 production by RAW 264.7 cells; assay: Cytokine secretion (IL-6) by immune cells on micropillar/microwell chip, 32-plex mouse cytokine array; format: cell-based; details: glycopolymers at 1250 μg/mL, LPS at 10 μg/mL, 24 hours, cell supernatant (FIG. 16B)
Procedure: (§8) FIGS. 9 and 16A-D are discussed in this example.
(§9) The micropillars on a micropillar chip were coated with 0.01% PMA-OD. Then 16.6 mM BaCl2/0.0033% PLL was printed on the micropillars using a microarray spotter.
(§10) An immune-cell suspension was prepared using RAW 264.7 cells, 0.75% alginate and 0.5 mg/mL Matrigel and then printed onto the coated micropillars. 60 nL spots of the immune-cell suspension were printed onto a micropillar chip with dried PLL-BaCl2 at a density of 3×10^6 cells/mL. After 2 minutes of alginate gelation and 24-hour incubation with a microwell chip containing 950 nL of cell growth media, the micropillar chip containing immune cells was sandwiched with a new microwell chip containing 950 nL of glycopolymers (polyacrylamide, N-glucosyl polymer, N-galactosyl polymer, N-mannosyl polymer, N-GlcNAc polymer, N-lactosyl polymer, N-α2,3 sialolactosyl polymer, and Nα2,6-sialolactosyl polymer) at 1250 μg/mL and LPS at 10 μg/mL, and incubated at 37° C. and 5% CO2 for 24 hours.
(§11) Separately, immune cells were cultured in 96-well plates in growth media and 10 μg/mL LPS for 24 hours as negative and positive controls for 2D monolayer culture.
(§12) The cell supernatants for all conditions were collected from the microwell chip and the 96-well plate, centrifuged, and analyzed for 32-plex mouse cytokine array measurements. […]

[4] = tested on: IL-10 production by RAW 264.7 cells; assay: Cytokine secretion (IL-10) by immune cells on micropillar/microwell chip, 32-plex mouse cytokine array; format: cell-based; details: glycopolymers at 1250 μg/mL, LPS at 10 μg/mL, 24 hours, cell supernatant (FIG. 16D)
Procedure: as §8, §9, §10, §11, §12

[5] = tested on: TNF-α production by RAW 264.7 cells; assay: Cytokine secretion (TNF-α) by immune cells on micropillar/microwell chip, 32-plex mouse cytokine array; format: cell-based; details: glycopolymers at 1250 μg/mL, LPS at 10 μg/mL, 24 hours, cell supernatant (FIG. 16A)
Procedure: as §8, §9, §10, §11, §12

[6] = tested on: CD80 on RAW 264.7 cells; assay: Surface biomarker expression (CD80) in immune cells on micropillar/microwell chip; format: cell-based, mouse; details: 3D alginate/Matrigel, glycopolymers at 1250 μg/mL, LPS at 10 μg/mL, 48 hours, vs growth medium control (FIG. 15B)
Procedure: as §1, §2, §3, §4, §5, §6, §7

**Q.** lipopolysaccharide [LPS] was tested. Which “expression level of CD40 marker” value [1] did it give?
**A.** Its value is “significantly enhanced”.

**Q.** What about the “expression level of class II MHC marker” value [2] of the same substance?
**A.** Its value is “significantly enhanced”.

**Q.** And the IL-6 production [3]?
**A.** The IL-6 production was “significantly stimulated”.

**Q.** And the IL-10 production [4]?
**A.** Its IL-10 production is “significantly stimulated”.

**Q.** What about the TNF-α production [5] of the same substance?
**A.** The TNF-α production was “significantly stimulated”.

**Q.** And the “expression level of CD80 marker” value [6]?
**A.** Its value is “enhanced”.
